The values below come from US20020160459A1, “PROCESS FOR PRODUCTION OF N-GLUCOSAMINE” (priority 1999, published 2002).

Each structure is given as a SMILES string. Where two headings read alike, the source gives them in different places.

Assay [1] addresses T1, N-glucosamine-6-phosphate synthase (Escherichia coli, UniProt P17169). The experiment in a line: Product inhibition of N-glucosamine-6-phosphate synthase, spectrophotometric assay in crude cell extracts. The assay is classed as biochemical. Particulars: FIG. 5; assays run with various concentrations of added product. As for the experimental part:
N-glucosamine-6-phosphate synthase activity was measured in production strains containing integrated T7-glmS cassettes after growth in LB medium with and without IPTG (Table 2). N-glucosamine-6-phosphate synthase was assayed in crude cell extracts using either […] or spectrophotometric assays (Badet et al., 1987, Biochemistry 26:1940-1948) as described below. The extracts used for those assays were prepared by suspending washed cell pellets in 5 mL of 0.1 M KH2PO4/K2HPO4, pH 7.5 per gram of wet cell paste, passing the suspension through a French press at 16,000 psi, and centrifuging the disrupted cell suspension at 35,000-40,000 ×g for 15 to 20 minutes. The supernatant was used as the source of enzyme for the assay.
In the spectrophotometric assay, 1 mL reactions containing 50 mM KH2PO4/K2HPO4, 10 mM fructose-6-phosphate, 6 mM L-glutamine, 10 mM KCl, 0.6 mM acetylpyridine adenine dinucleotide (APAD), and 50-60 Units of L-glutamic dehydrogenase (Sigma Type II from bovine liver) were run at room temperature. The activity was followed by monitoring the absorbance at 365 nm after the addition of extract and corrected for the small absorbance increase observed in the absence of extract. The activity was calculated using a molar extinction coefficient for APAD of 9100. […]

The target in assay [2] is T1, N-glucosamine-6-phosphate synthase. Particulars: White 1968, Biochem. J. 106:847-858; cited from earlier work.
Assay [3] has the same target. Particulars: substrate of the enzyme from Escherichia coli; cited from earlier work.

T1 sequence (P17169 2-609): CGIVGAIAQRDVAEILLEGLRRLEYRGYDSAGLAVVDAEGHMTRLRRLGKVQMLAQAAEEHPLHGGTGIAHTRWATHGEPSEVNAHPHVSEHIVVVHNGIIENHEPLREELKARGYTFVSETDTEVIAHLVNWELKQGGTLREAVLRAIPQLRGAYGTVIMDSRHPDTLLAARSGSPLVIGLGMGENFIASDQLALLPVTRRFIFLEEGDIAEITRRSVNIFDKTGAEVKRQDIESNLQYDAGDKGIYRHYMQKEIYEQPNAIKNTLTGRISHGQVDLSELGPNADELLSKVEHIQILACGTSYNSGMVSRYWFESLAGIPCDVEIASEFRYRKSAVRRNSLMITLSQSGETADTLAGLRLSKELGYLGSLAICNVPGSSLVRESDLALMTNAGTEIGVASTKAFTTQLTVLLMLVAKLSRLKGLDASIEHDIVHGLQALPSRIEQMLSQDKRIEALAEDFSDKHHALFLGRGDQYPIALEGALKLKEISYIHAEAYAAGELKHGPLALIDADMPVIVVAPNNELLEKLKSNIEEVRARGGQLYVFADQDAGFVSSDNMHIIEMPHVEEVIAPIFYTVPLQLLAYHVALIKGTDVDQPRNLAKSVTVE

`N[C@@H]1[C@@H](O)[C@H](O)[C@@H](COP(=O)(O)O)O[C@@H]1O` [N-glucosamine-6-phosphate]: the figures for the “inhibition of N-glucosamine-6-phosphate synthase” value in assay [1] and in assay [2] were “significantly inhibited” and “inhibited”, respectively.
For the compound `N[C@H]1C(O)O[C@H](CO)[C@@H](O)[C@@H]1O` (some centres unmarked) [N-glucosamine], the “inhibition of N-glucosamine-6-phosphate synthase” value in assay [1] is reported as “slightly inhibited”.
One may read the Km as the substrate concentration at which the rate is half of its maximum. For the compound `O=C(CO)[C@@H](O)[C@H](O)[C@H](O)COP(=O)(O)O` [fructose-6-phosphate], the Km in assay [3] is 2000 µM.
For `NC(=O)CC[C@H](N)C(=O)O` [glutamine], in assay [3], the Michaelis-Menten constant (Km) is 400 µM.
